In US12344644B2, “Amelioration and treatment of infarction damage with a polypeptide segement of BNIP3” (priority 2021, dated 2025):

How the values were obtained:
wild-type mice [1] = assay: DOX treatment in vivo: cardiac injury markers (cTnI, CK, LDH, BNP); parameters: species or system mouse; conditions: DOX alone or with coadministration of PepB
wild-type mice [2] = assay: DOX treatment in vivo: serial echocardiography; conditions: DOX alone or in combination with PepB
Text: Next, we explored the effect of DOX treatment on cardiac function assessed with echocardiographic measurements at three time points (TO, T1 16 days, T2 42 days) (FIG. 19).

[3] = system: human cardiomyocytes (HCM); assay: DOX induced mPTP opening in human cardiomyocytes (Calcein-AM); conditions: 10 μM DOX alone or with peptide co-administered
[4] = system: human cardiomyocytes (HCM); assay: DOX induced mitochondrial ROS generation in human cardiomyocytes; conditions: 10 μM DOX alone or with peptide co-administered; four and 22 hours
[5] = system: human cardiomyocytes (HCM); assay: DOX induced mitochondrial calcium ion overload in human cardiomyocytes; conditions: 10 μM DOX alone or with peptide co-administered; four hours
mitochondria = assay: DOX treatment in vivo: mitochondrial OCR (Seahorse mitochondrial stress test)
autophagic flux = assay: DOX treatment in vivo: autophagic flux (LC3, p62, BNIP3 western blot, chloroquine); conditions: DOX alone or with PepB
[6] = system: human cardiomyocytes (HCM); assay: DOX induced mitochondrial membrane potential destabilization in human cardiomyocytes; conditions: 10 μM DOX alone or with peptide co-administered; four and 22 hours
[7] = system: wild-type mice subjected to myocardial I/R; assay: In vivo murine myocardial I/R: infarct size per area at risk (Evans blue/TTC); parameters: species or system mouse; conditions: 30 min ischemia, 24 hours reperfusion
BNIP3 = assay: Mitochondrial BNIP3 level in the AAR after I/R (immunoblot); type: in vivo, mouse; conditions: 10 minutes reperfusion
caspase-3 = assay: Caspase-3 activity in the AAR after I/R; type: in vivo, mouse; conditions: 1 hour reperfusion
recombinant BNIP3 = biological target: T1, recombinant BNIP3 (Mus musculus, UniProt O55003); assay: BNIP3/peptide microarray (truncation, alanine scan, substitution analysis); type: binding; conditions: alanine scan and substitution analyses of BNIP3 1-20
T1 construct: purchased Cusabio (obtained via Hölzel Diagnostika, Cologne, Germany) CSB-CF002766Mo-50
T1 sequence (O55003 whole entry, the tested form may be a part): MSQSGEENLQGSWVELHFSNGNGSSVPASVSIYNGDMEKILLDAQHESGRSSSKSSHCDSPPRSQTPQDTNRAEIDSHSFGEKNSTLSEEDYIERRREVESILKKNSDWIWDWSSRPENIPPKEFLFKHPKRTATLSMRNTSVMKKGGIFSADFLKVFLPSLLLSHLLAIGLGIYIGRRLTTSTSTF

COc1cccc2c1C(=O)c1c(O)c3c(c(O)c1C2=O)C[C@@](O)(C(=O)CO)C[C@@H]3O[C@H]1C[C@H](N)[C@H](O)[C@H](C)O1 [DOX, doxorubicin]
cardiomyocyte death, cardiac troponin I (cTnl) levels (wild-type mice [1]): high cardiac troponin I (cTnl) levels
heart rate (wild-type mice [2]): unaffected
mPTP opening [3]: activated
mitochondrial ROS generation [4]: triggered
mitochondrial calcium ion overload [5]: induced
basal respiration (mitochondria; DOX alone or with PepB): affected
maximal respiration (mitochondria; DOX alone or with PepB): affected
respiratory reserve capacity (OCR) (mitochondria; DOX alone or with PepB): inhibited
Complex II-stimulated respiration (mitochondria; DOX alone or with PepB co-treatment): inhibition
BNIP3 accumulation (autophagic flux): triggered p62 and BNIP3 accumulation
p62 accumulation (autophagic flux): triggered p62 and BNIP3 accumulation
mitochondrial membrane potential [6]: disrupted

GRKKRRQRRRPQLDAQHESGRSSSKSSHCDSP [TATBNIP3-20C, control peptide: HIV-1 PTD and 20 amino acids derived from BNIP3 42-61]
infarct size compared with vehicle treatment ([7]; injected 5 minutes before reperfusion): no difference

GRKKRRQRRRPQMSQSGEENLQGSWVELHFSN [TAT-BNIP3-20A, HIV-1 PTD and 20 amino acids derived from BNIP3 1-20]
reduction in infarct size relative to treatment with vehicle ([7]; peptide injected 5 minutes before reperfusion): 41%
BNIP3 translocation to the mitochondria (BNIP3): prevented BNIP3 translocation
caspase-3 activity (caspase-3): markedly reduced caspase-3 activity

VELHFSN
BNIP3 binding (microarray signal) (recombinant BNIP3): substantially higher luminescence
